The text below walks through data of paper PMC9814900 (Communications Chemistry, 2022).

Numbered stars: 1 amine (or outer) side, 2 acyl side, 3 side chain; on linkers, the order of the positions; unused ones are H or OH. Bridge positions count the residues as written; N and C are the ends. Peptide text beside a SMILES is read from it. * marks the point of attachment. Biotin = O=C1N[C@H]2[C@H](CS[C@H]2CCCCC(=O)*)N1; C6F4(1,4-diyl) = Fc1c(F)c([*:2])c(F)c(F)c1[*:1]; PEG4 = NCCOCCOCCOCCOCCC(=O)O

Data set [1] concerns the target T1, SUMO-25-109MDM2 (Homo sapiens, UniProt Q00987).
T1 construct: the ^25-109MDM2 gene was purchased from Addgene; made in house; host or cells: E. coli Rosetta (DE3) pLysS
Description: Direct BLI binding assay of immobilised biotinylated peptides. Conditions: biotin-PEG4-peptide on streptavidin sensor, SUMO-25-109MDM2 4-500 nM, global 1:1 fit. How it is done:
6. Supplementary Methods 4: Binding validation by bio-layer interferometry 6.1 Methods for BLI assay
In vitro binding assay was performed using ForteBio Octet RED96 BLI system (Octet RED96). In a typical experiment, the streptavidin (SA) tips were dipped in 200 µL biotinylated- peptide solution (2.0 μM in PBS with 0.02% Tween 20 and 1 mg/mL BSA) for the loading step. The loaded tips were then dipped in the sample wells for association curves. Buffer-only condition were used as reference for background subtraction. After association, the tips were dipped in blocking buffer (1x PBS, 0.02% Tween 20, 1 mg/mL BSA) to obtain dissociation curve. The association and dissociation curves were fitted by the global fitting algorithm, under binding model 1:1 to obtain the binding response value (R) in nm.
Streptavidin sensors were soaked in blocking buffer for 5 min. After immobilizing the PEG4-biotinylated peptide (100 nM of Biotin-PEG4-peptide) onto streptavidin sensors, serial dilutions of SUMO-25-109MDM2 in blocking buffer were analyzed for binding (500 nM, 250 nM, 125 nM, 63nM, 32 nM, 16 nM, 8 nM and 4 nM. The response was recorded at equilibrium after 2 min.
In general terms: Biolayer interferometry detects binding as a change in optical thickness at a sensor tip.

In data set [2] the target is T1, SUMO-25-109MDM2. Description: In-solution competition assay by biolayer interferometry (BLI). It is filed as binding. As to conditions: supplementary binding validation; averaged over three measurements; ~30-100 nM SUMO-25-109MDM2 as given per peptide; read-out: Averaged KD, competition BLI assay.
Another data set in a line: Serum stability assay. It is filed as in vitro ADME. As to conditions: 10 µM peptide, 25% human serum in 1x PBS (v/v); 0 min-24 h; TCA precipitation; LC-MS EIC peak area; first-order fit; three experiments; read-out: Half-life (t1/2) in serum. How it is done: To assess the stability of stapled peptides, we performed a serum stability assay (Supplementary Fig. 6)[31],[36],[37]. Three stapled peptides were selected for assessment. […]
10 µM peptide were incubated with 25% human serum in buffer 1x PBS (v/v). At each time point (0 min, 5 min, 10 min, 30 min, 1 h, 2 h, 4 h, 8 h, 12h and 24 h), the mixture was sampled, treated with 10% trichloroacetic acid, and centrifuged at 12,000 g to remove serum proteins. The supernatant was acidified with 0.2% formic acid in water (v/v) and subjected to LC-MS analysis. The percentage of peptides (Y-axis) was calculated as the ratio of peak area in extracted ion chromatogram (EIC). Three experiments were carried out. The serum digestion curve was plotted using Prism8 software. The half-life of each peptide was calculated by fitted the digestion curve with the first order kinetic equation: ሾXሿ௧ ൌ ሾXሿ଴ ൈeି௞௧ , ሾXሿ is the remaining peptide percentage, t is the time in min. Half-life was calculated as tଵ/ଶ ൌሺln 2ሻ/k .

The target in a further data set is antibody 12ca5. As to conditions: stated for the epitope without method; ref not given; cited from earlier work. The source says:
The epitope used for 12ca5 has the sequence […]; the previously characterized protein 14-3-3σ binder 14-3-3.6 was used for 14-3-3σ and its sequence can be found in Fig. 6b. A beta-alanine spacer was used between the library construct and the C-terminal lysine.

In another data set the target is 14-3-3σ. As to conditions: previously characterized binder; cited from earlier work. The source says: The epitope used for 12ca5 has the sequence […]; the previously characterized protein 14-3-3σ binder 14-3-3.6 was used for 14-3-3σ and its sequence can be found in Fig. 6b. A beta-alanine spacer was used between the library construct and the C-terminal lysine. […]

With `CC(C)C[C@H](NC(=O)[C@H](C)NC(=O)[C@H](C)NC(=O)[C@H](Cc1c[nH]c2ccccc12)NC(=O)[C@H](Cc1ccc(O)cc1)NC(=O)[C@H](C)NC(=O)[C@H](C)NC(=O)[C@H](Cc1ccccc1)NC(=O)[C@H](C)NC(=O)[C@@H](NC(=O)CCOCCOCCOCCOCCNC(=O)CCCC[C@@H]1SC[C@@H]2NC(=O)N[C@@H]21)[C@@H](C)O)C(=O)N[C@@H](C)C(=O)N[C@@H](C)C(=O)N[C@@H](CCCCN)C(N)=O` [Peptide 32-biotin] ({Biotin-PEG4}-TAFAAYWAALAAK-NH2), at SUMO-25-109MDM2 [1], the koff (usually the first-order rate constant of dissociation) came to 0.00981 s⁻¹ and the kon (usually the second-order rate constant of association) worked out at 633000 M⁻¹ s⁻¹.

Take `CC(C)C[C@@H]1NC(=O)[C@H](C)NC(=O)[C@@H](NC(=O)[C@H](Cc2c[nH]c3ccccc23)NC(=O)[C@H](Cc2ccc(O)cc2)NC(=O)[C@H](CCC(=O)O)NC(=O)[C@H](C)NC(=O)[C@H](Cc2ccccc2)NC(=O)[C@H](CO)NC(=O)[C@H](C)N)CSc2c(F)c(F)c(c(F)c2F)SC[C@@H](C(N)=O)NC(=O)[C@H](C)NC1=O` [Peptide 39] (H-ASFAEYWCALAC-NH2; linker 8-12 via C6F4(1,4-diyl)): the Kd (as a rule, the free concentration of one partner at which half of the binding sites on the other are occupied at equilibrium, for simple one-to-one binding) at SUMO-25-109MDM2 [2] is 3.3 ± 2.1 nM. Besides, in the data set “Serum stability assay”, the half-life at 10 µM was 25 min. Consider YPYDVPDYA, for which the Kd at antibody 12ca5 was 4 nM. On SUMO-25-109MDM2 [1], `CC(C)C[C@H](NC(=O)[C@H](C)NC(=O)[C@H](C)NC(=O)[C@H](Cc1c[nH]c2ccccc12)NC(=O)[C@H](Cc1ccc(O)cc1)NC(=O)[C@H](C)NC(=O)[C@H](C)NC(=O)[C@H](Cc1ccccc1)NC(=O)[C@H](CO)NC(=O)[C@H](C)NC(=O)CCOCCOCCOCCOCCNC(=O)CCCC[C@@H]1SC[C@@H]2NC(=O)N[C@@H]21)C(=O)N[C@@H](C)C(=O)N[C@@H](C)C(=O)N[C@@H](CCCCN)C(N)=O` [Peptide 33-biotin] ({Biotin-PEG4}-ASFAAYWAALAAK-NH2) gave a koff of 0.0107 s⁻¹ and a kon of 170000 M⁻¹ s⁻¹. As to `CC(C)C[C@H](NC(=O)[C@@H]1CSc2c(F)c(F)c(c(F)c2F)SC[C@H](NC(=O)[C@H](C)NC(=O)[C@H](Cc2ccccc2)NC(=O)[C@H](CO)NC(=O)[C@H](C)N)C(=O)N[C@@H](Cc2ccc(O)cc2)C(=O)N[C@@H](Cc2c[nH]c3ccccc23)C(=O)N[C@@H](C)C(=O)N1)C(=O)N[C@@H](CO)C(=O)N[C@@H](C)C(N)=O` [Peptide 38] (H-ASFACYWACLSA-NH2; linker 5-9 via C6F4(1,4-diyl)), the Kd at SUMO-25-109MDM2 [2] is 0.4 ± 0.3 nM. In addition, the half-life at 10 µM in “Serum stability assay” was 27 min. `CC(C)C[C@H](NC(=O)[C@H](C)NC(=O)[C@H](C)NC(=O)[C@H](Cc1c[nH]c2ccccc12)NC(=O)[C@H](Cc1ccc(O)cc1)NC(=O)[C@H](C)NC(=O)[C@H](C)NC(=O)[C@H](Cc1ccccc1)NC(=O)[C@H](C)NC(=O)[C@@H](N)[C@@H](C)O)C(=O)N[C@@H](C)C(=O)N[C@@H](C)C(=O)N[C@@H](CCCCN)C(N)=O` [Peptide 32] (H-TAFAAYWAALAAK-NH2): the half-life at 10 µM in “Serum stability assay” was 3.9 min. For “Cha-Cha-β-Ser-Orn-pSer-Nph-β-Ser-β-Ser-Nph [Peptide 14-3-3.6]”, at 14-3-3σ, the Kd was 3 nM.

With `CC(C)C[C@H](NC(=O)[C@H](C)NC(=O)[C@H](C)NC(=O)[C@H](Cc1c[nH]c2ccccc12)NC(=O)[C@H](Cc1ccc(O)cc1)NC(=O)[C@H](C)NC(=O)[C@H](C)NC(=O)[C@H](Cc1ccccc1)NC(=O)[C@H](C)NC(=O)[C@H](C)NC(=O)CCOCCOCCOCCOCCNC(=O)CCCC[C@@H]1SC[C@@H]2NC(=O)N[C@@H]21)C(=O)N[C@@H](C)C(=O)N[C@@H](C)C(=O)N[C@@H](CCCCN)C(N)=O` [Peptide 34-biotin] ({Biotin-PEG4}-AAFAAYWAALAAK-NH2), at SUMO-25-109MDM2 [1], the koff turned out to be 0.0102 s⁻¹ and the kon is 824000 M⁻¹ s⁻¹.

Consider `CC(C)C[C@H](NC(=O)[C@H](C)NC(=O)[C@H](C)NC(=O)[C@H](Cc1c[nH]c2ccccc12)NC(=O)[C@H](Cc1ccc(O)cc1)NC(=O)[C@H](C)NC(=O)[C@H](C)NC(=O)[C@H](Cc1ccccc1)NC(=O)[C@H](C)NC(=O)[C@H](C)N)C(=O)N[C@@H](C)C(=O)N[C@@H](C)C(=O)N[C@@H](CCCCN)C(N)=O` [Peptide 34] (H-AAFAAYWAALAAK-NH2), for which the half-life at 10 µM in “Serum stability assay” was found to be 5.1 min. On to `CC(C)C[C@H](NC(=O)[C@H](C)NC(=O)[C@@H]1CSc2c(F)c(F)c(c(F)c2F)SC[C@H](NC(=O)[C@H](Cc2ccccc2)NC(=O)[C@H](CO)NC(=O)[C@H](C)N)C(=O)N[C@@H](CCC(=O)O)C(=O)N[C@@H](Cc2ccc(O)cc2)C(=O)N[C@@H](Cc2c[nH]c3ccccc23)C(=O)N1)C(=O)N[C@@H](C)C(=O)N[C@@H](C)C(N)=O` [Peptide 36] (H-ASFCEYWCALAA-NH2; linker 4-8 via C6F4(1,4-diyl)), for which the Kd on SUMO-25-109MDM2 [2] was found to be 4.4 ± 1.9 nM. Besides, the half-life at 10 µM in the data set “Serum stability assay” amounted to 26 min. Turning to `CC(C)C[C@H](NC(=O)[C@H](CC(N)=O)NC(=O)[C@H](Cc1c[nH]c2ccccc12)NC(=O)[C@H](Cc1ccc(O)cc1)NC(=O)[C@H](CCC(=O)O)NC(=O)[C@H](C)NC(=O)[C@H](Cc1ccccc1)NC(=O)[C@H](CO)NC(=O)[C@@H](N)[C@@H](C)O)C(=O)N[C@@H](CC(C)C)C(=O)N[C@@H](CO)C(=O)N1CCC[C@H]1C(N)=O` [PMI, reference compound] (H-TSFAEYWNLLSP-NH2), in “Serum stability assay”, the half-life at 10 µM worked out at 2.2 min.
